“And” between values parts separate entries of the source, which are not always exact repeats. Equal values may be shown once. Read-outs that look alike come from different tables or passages of the source.
Experiments:
[1] = biological target: viral influenza A/California/04/2009 (H1N1) neuraminidase (H1N1-NA) (Influenza A virus (A/California/04/2009(H1N1)), UniProt C3W5S3); assay: biochemical; format: biochemical
[2] = biological target: T1, bacterial Vibrio cholerae neuraminidase (VCNA) (Vibrio cholerae serotype O1, UniProt P0C6E9); assay: biochemical; details: mean ± SD, n = 3–6
T1 construct: purchased Hoffmann La Roche, Basel, Switzerland
T1 sequence (P0C6E9 25-781): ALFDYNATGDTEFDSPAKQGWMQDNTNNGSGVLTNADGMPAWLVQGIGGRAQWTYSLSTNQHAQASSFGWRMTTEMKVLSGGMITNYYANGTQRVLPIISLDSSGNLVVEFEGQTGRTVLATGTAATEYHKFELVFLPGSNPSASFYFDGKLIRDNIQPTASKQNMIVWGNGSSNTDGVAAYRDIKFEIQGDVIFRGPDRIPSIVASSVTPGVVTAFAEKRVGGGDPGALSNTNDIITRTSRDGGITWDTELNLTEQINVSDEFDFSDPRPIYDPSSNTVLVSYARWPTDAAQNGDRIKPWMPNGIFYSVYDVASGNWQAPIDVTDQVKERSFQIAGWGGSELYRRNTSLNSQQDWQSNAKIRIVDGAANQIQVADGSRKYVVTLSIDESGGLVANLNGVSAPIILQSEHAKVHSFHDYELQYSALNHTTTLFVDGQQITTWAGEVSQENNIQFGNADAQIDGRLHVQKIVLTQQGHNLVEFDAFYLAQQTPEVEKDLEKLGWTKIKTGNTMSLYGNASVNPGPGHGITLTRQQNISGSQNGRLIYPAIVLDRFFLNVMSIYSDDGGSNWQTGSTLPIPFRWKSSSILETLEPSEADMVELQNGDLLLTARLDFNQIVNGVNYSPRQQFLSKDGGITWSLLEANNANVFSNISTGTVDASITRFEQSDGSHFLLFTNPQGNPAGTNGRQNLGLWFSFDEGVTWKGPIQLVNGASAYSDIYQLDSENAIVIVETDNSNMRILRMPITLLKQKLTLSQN

bacterial VCNA = biological target: T2, bacterial VCNA (Vibrio cholerae serotype O1, UniProt P0C6E9); assay: biochemical
T2 construct: purchased Hoffmann La Roche, Basel, Switzerland
T2 sequence (P0C6E9 25-781): as above
Method: The median–effect concentration (Dm, a parameter analogous to the IC50 value indicating potency), the slope of the concentration–effect relationship (m, the dynamic order or the shape of dose–effect curve), and the linear regression correlation coefficient (r, a measure of data quality) were determined from the median–effect plots.
The concentration–efficiency curves of the test samples were transformed into the double-logarithmic mean action diagram (shape (m), intercepts and regression coefficients were used to determine the median effect dose Dm). Dm= 10^−(b/m)
Fraction affected (fa) and fraction unaffected (fu) by the concentration D were calculated by the median effect equation [27]: fa/fu= (D/Dm)^m
Dm is the concentration required to produce the median effect.

[3] = biological target: Streptococcus pneumoniae NA NanA; details: cited from earlier work
Ruminococcus gnavus NA = details: cited from earlier work

SMILES	IC50 ([1]; IC50 (Viral))	IC50 [2]	also measured
Oc1cc(O)c2c(c1)O[C@H](c1cc(O)c(O)c(O)c1)[C@H](O)C2 [epigallocatechin]	1740 µM	1950 µM and 1960 µM	
Oc1cc(O)c2c(c1)O[C@H](c1cc(O)c(O)c(O)c1)[C@@H](O)C2 [gallocatechin]	1790 µM	1970 µM	
O=C1OC[C@@H](O)[C@H]([C@@H]2OC(=O)c3cc(O)c(O)c(O)c3-c3c(O)c(O)c(O)c4c3C(=O)O[C@H]2[C@@H]4O)OC(=O)c2cc(O)c(O)c(O)c2-c2c1cc(O)c(O)c2O [casuariin]		236 µM	
Oc1cc(O)c2c(c1)O[C@H](c1ccc(O)c(O)c1)[C@@H](O)C2 [catechin]	1070 µM and 1080 µM	2050 µM	
O=C(O[C@@H]1Cc2c(O)cc(O)cc2O[C@@H]1c1ccc(O)c(O)c1)c1cc(O)c(O)c(O)c1 [epicatechin-3-O-gallate]	1910 µM	210 µM and 211 µM	
CC(=O)N[C@H]1[C@H]([C@H](O)[C@H](O)CO)OC(C(=O)O)=C[C@@H]1N=C(N)N [zanamivir, 2,4-dideoxy-2,3-didehydro-4-guanidino-N-acetylneuraminic acid]		51.2 µM and 52 µM	IC50 (bacterial VCNA): 51.2 µM; m (slope of the concentration–effect relationship) (bacterial VCNA; VCNA, median effect plot): 0.9; Ki [3]: 720 µM; IC50 (Ruminococcus gnavus NA): 11900 µM
Oc1cc(O)c2c(c1)O[C@H](c1ccc(O)c(O)c1)[C@H](O)C2 [epicatechin]	1050 µM	2310 µM	
O=C1OCC2OC(=O)c3cc(O)c(O)c(O)c3-c3c(O)c(O)c(O)c4c3C(=O)OC(C2OC(=O)c2cc(O)c(O)c(O)c2-c2c1cc(O)c(O)c2O)C1OC(=O)c2c-4c(O)c(O)c(O)c2C1O (stereo not drawn) [vescalagin]		134 µM	
O=C(OCC1OC(OC(=O)c2cc(O)c(O)c(O)c2)C(OC(=O)c2cc(O)c(O)c(O)c2)C(OC(=O)c2cc(O)c(O)c(O)c2)C1OC(=O)c1cc(O)c(O)c(O)c1C1c2c(O)c(O)c(O)c3c2C(=O)OC1C(C1OC(=O)c2cc(O)c(O)c(O)c2-c2c(cc(O)c(O)c2O)C(=O)OCC1O)OC(=O)c1cc(O)c(O)c(O)c1-3)c1cc(O)c(O)c(O)c1 (stereo not drawn) [paeonianin C]		14.6 µM and 15 µM	IC50 ([1]; read-out: IC50 (Viral)): 344 µM
O=C(O[C@@H]1Cc2c(O)cc(O)cc2O[C@@H]1c1cc(O)c(O)c(O)c1)c1cc(O)c(O)c(O)c1 [epigallocatechin-3-O-gallate]	1560 µM	63.3 µM and 64 µM	
CCC(CC)O[C@@H]1C=C(C(=O)O)C[C@H](N)[C@H]1NC(C)=O [oseltamivir carboxylate]			Ki [3]: 1.77 µM; IC50 (Ruminococcus gnavus NA): 30 µM
O=C1O[C@H]2[C@H](OC(=O)c3cc(O)c(O)c(O)c3)[C@@H](OC(=O)c3cc(O)c(O)c4c3[C@@H]3C1=CC(=O)C(O)(O)C3(O)O4)[C@H](OC(=O)c1cc(O)c(O)c(O)c1)O[C@@H]2COC(=O)c1cc(O)c(O)c(O)c1 (stereo partly drawn) [terchebin]	102 µM and 101 µM	30.4 µM and 31 µM	fold higher inhibitory potency compared to paeonianin C [1]: 3.5 fold
O=C1O[C@H]2[C@H](OC(=O)c3cc(O)c(O)c(O)c3)[C@@H](OC(=O)c3cc(O)c(O)c4c3[C@@H]3C1=CC(=O)[C@](O)(O4)C3(O)O)[C@@H]1OC(=O)c3cc(O)c(O)c(O)c3-c3c(cc(O)c(O)c3O)C(=O)OC[C@H]2O1 [carpinusin]		138 µM	
O=C(O[C@H]1Cc2c(O)cc(O)cc2O[C@@H]1c1cc(O)c(O)c(O)c1)c1cc(O)c(O)c(O)c1 [gallocatechin-3-O-gallate]	395 µM and 396 µM	24 µM and 25 µM	
O=C1O[C@H]2[C@@H]3OC(=O)c4cc(O)c(O)c(O)c4-c4c(cc(O)c(O)c4O)C(=O)OC[C@H]2O[C@@H](OC(=O)c2cc(O)c(O)c(O)c2)[C@@H]3OC(=O)c2cc(O)c(O)c3c2[C@@H]2C1=CC(=O)[C@](O)(O3)C2(O)O [geraniin]		134 µM and 135 µM	
O=C1O[C@H]2[C@H](O)[C@@H](OC(=O)c3cc(O)c(O)c4c3[C@@H]3C1=CC(=O)[C@](O)(O4)C3(O)O)[C@@H]1OC(=O)c3cc(O)c(O)c(O)c3-c3c(cc(O)c(O)c3O)C(=O)OC[C@H]2O1 [granatin A]		155 µM and 158 µM	
O=C(O[C@H]1Cc2c(O)cc(O)cc2O[C@@H]1c1ccc(O)c(O)c1)c1cc(O)c(O)c(O)c1 [catechin-3-O-gallate]	1950 µM	54.3 µM and 55 µM	
